Structures can show the parent of a compound that is named as a salt.

For one experiment, the system named is SB.msgc-1. The experiment can be described thus: AC50 for growth inhibition (viability) (log10 M); higher = less potent. As to conditions: SB.msgc-1 (sporadic gastric cancer). The method in brief:
(§1)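 Gastric cancer cells derived from patients with hereditary or sporadic disease were seeded at 500 cells in 5 μL medium per 1536 well. A pintool delivered 23 nL of compound in DMSO, as 11 threefold dilutions from a final 46 μM. After 48 h, CellTiter-Glo was added for 30 min at room temperature and luminescence was read on a ViewLux. The log half-maximal activity concentration was taken from a four-parameter fit of viability normalised to DMSO, using only high-quality curve classes.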

In the next experiment the test system is SB.mhdgc-1. Described as above. To be noted: SB.mhdgc-1 (hereditary c.1380delA CDH1 gastric cancer). The method in brief: as §1

Take `COC1=CC=C2[N](CCCN(C)C)C=C(C2=C1)C/3=C(/C(=O)NC3=O)C4=C[NH]C5=C4C=CC=C5` [G?-6983]: the “AC50 for growth inhibition (log10 M)” value was -4.58 in the experiment with SB.msgc-1 and -6.78 in the experiment on SB.mhdgc-1.
In the same order, the values of `CC(C)(C)c1[nH]cnc1/C=c1\[nH]c(=O)/c(=C/c2ccccc2)[nH]c1=O` [Plinabulin] are -6.07 and -7.62.
In the same order, the values of `COc1cc2nccc(Oc3ccc(NC(=O)NC4CC4)c(Cl)c3)c2cc1C(N)=O` [Lenvatinib] are -5.48 and -6.38.
Take `Cn1cc(CNCC2CCN(c3ncc(C(=O)NO)cn3)CC2)c2ccccc21` [Quisinostat hydrochloride]: the “AC50 for growth inhibition (log10 M)” value in the experiment with SB.msgc-1 was -7.23; in the experiment with SB.mhdgc-1, -6.73.
As for `CCCCc1ccc(N[S+](=O)([O-])c2ccc(C)c(C(=O)N3CCN(c4cccc(C)c4C)CC3)c2)cc1` [IDH-001], the entries for the “AC50 for growth inhibition (log10 M)” value in the experiment on SB.msgc-1 and in the experiment on SB.mhdgc-1 were -4.68 and -4.83, respectively.
In the same order, the values of `OC1=CC=C(C=C1)\C2=C\C(=O)C3=C(O2)C=C(O)C=C3O` [Apigenin] are -4.83 and -5.08.
In the same order, the values of `C[C@H]1O[C@H]([C@H](O)[C@@H]1O)N2\C=C(F)/C(=O)NC2=O` [Doxifluridine] are -5.33 and -6.18.
In the same order, the values of `OC[C@H]1O[C@H]([C@@H](F)[C@@H]1O)N2\C=C/C(=O)NC2=O` are -5.13 and -5.08.
In the case of `CCOc1ccccc1N/N=C1/C(=O)N(c2nc(-c3ccccc3)cs2)N=C1C` [BAM7], the “AC50 for growth inhibition (log10 M)” value in the experiment on SB.msgc-1 and with SB.mhdgc-1 was -5.48 in each case.
With `CNCC[C@H](Oc1cccc2ccccc12)c1cccs1` [Duloxetine hydrochloride], the “AC50 for growth inhibition (log10 M)” value in the experiment with SB.msgc-1 is -5.58; with SB.mhdgc-1, -5.53.
Regarding `COCCn1c2c([n+](Cc3cnccn3)c1C)C(=O)c1ccccc1C2=O` [Sepantronium bromide], the “AC50 for growth inhibition (log10 M)” value was -7.73 in the experiment on SB.msgc-1 and -7.33 in the experiment on SB.mhdgc-1.
In the same order, the values of `OC1=CC=C(C=C1)\C2=C(O)\C(=O)C3=C(O2)C=C(O)C=C3O` [Kaempferol] are -4.88 and -4.93.
As for `CN1CCCC(CC1)N2\N=C(CC3=CC=C(Cl)C=C3)/C4=C(C=CC=C4)C2=O` (stereo unspecified) [Azelastine hydrochloride], the “AC50 for growth inhibition (log10 M)” value in the experiment with SB.msgc-1 was -6.03; in the experiment on SB.mhdgc-1, -6.08.
In the same order, the values of `N#CCNC(=O)c1ccc(-c2ccnc(Nc3ccc(N4CCOCC4)cc3)n2)cc1` [CYT387] are -4.73 and -4.78.
Take `CC1=C(/C=C/C(C)=C/C=C/C(C)=C/C(=O)Nc2ccc(O)cc2)C(C)(C)CCC1` [Fenretinide]: the entries for the “AC50 for growth inhibition (log10 M)” value in the experiment on SB.msgc-1 and in the experiment with SB.mhdgc-1 were -4.52 and -4.67, respectively.
In the same order, the values of `CCN(CC)CCNC(=O)c1ccc2nc(-c3ccccc3)c(-c3ccc(CN4CCC(n5c(=O)[nH]c6ccccc65)CC4)cc3)nc2c1` [Merck-22-6] are -4.88 and -5.63.
In the same order, the values of `Cc1cc(C[S+](=O)([O-])c2ccccc2)cc(OCc2ccc(CN3CCC[C@@H]3CO)cc2)c1` [PF-543] are -4.83 and -4.78.
In the same order, the values of `Cc1ccc(NC(=O)c2cccc(N(C)C)c2)cc1NC(=O)c1ccc(O)cc1` are -5.78 and -6.48.
Take `CO[C@@H]1[C@H](N(C)C(=O)c2ccccc2)C[C@H]2O[C@]1(C)n1c3ccccc3c3c4c(c5c6ccccc6n2c5c31)C(=O)NC4` [Midostaurin]: the “AC50 for growth inhibition (log10 M)” value in the experiment with SB.msgc-1 is -5.38; with SB.mhdgc-1 it was -5.63.
In the same order, the values of `COc1ccc(C[C@@H](C)[C@@H](C)Cc2ccc(OC)c(OC)c2)cc1OC` [Terameprocol] are -5.43 and -5.18.
Turning to `CC1=CC=CC=C1N2\C(=N/C3=C(C(=CC=C3)C)C2=O)C[N]4C=NC5=C4N=CN=C5N`, the “AC50 for growth inhibition (log10 M)” value in the experiment on SB.msgc-1 was -6.23; in the experiment with SB.mhdgc-1, -5.43.
In the same order, the values of `COC1=CC2=C(C=C1CC3=C(F)C(=CC=C3)Cl)C(=O)\C(=C/N2[C@H](CO)C(C)C)C(O)=O` [Elvitegravir] are -4.68 and -4.78.
In the same order, the values of `CC1(C)OC/2=C(\[C@H](NCC3=CC=CC=C3)[C@@H]1O)C(=O)C4=CC=CC=C4C2=O` are -5.58 and -5.43.
In the same order, the values of `ClC1=CC\2=C(OC3=C(C=CC=C3)\N=C2N4CCNCC4)C=C1` [Amoxapine] are -4.78 and -4.63.
With `N#Cc1ccc(COC[C@H]2O[C@@H](n3c(NCc4ccc(Cl)c(Cl)c4)nc4c(N)ncnc43)[C@H](O)[C@@H]2O)cc1`, the “AC50 for growth inhibition (log10 M)” value with SB.msgc-1 is -5.08; in the experiment with SB.mhdgc-1, -4.93.
`CCC(=O)NC[C@H](Cc1ccc(OCCc2nc(-c3ccccc3)oc2C)cc1)N/C(C)=C\C(=O)c1ccc(C(F)(F)F)cc1` [GW-6471]: the “AC50 for growth inhibition (log10 M)” value was -4.73 with SB.msgc-1 and -5.48 in the experiment on SB.mhdgc-1.
In the same order, the values of `O=C(O)Cc1cccc(OCCCN(Cc2cccc(C(F)(F)F)c2Cl)CC(c2ccccc2)c2ccccc2)c1` [GSK-3965] are -4.68 and -4.78.
In the same order, the values of `CC(C)(C(=O)NCC(F)(F)C(F)(F)F)C(=O)N[C@@H]1C(=O)Nc2ccccc2-c2ccccc21` are -5.23 and -4.83.
In the same order, the values of `COc1c(C)cnc(Cn2cnc3c(Cl)nc(N)nc32)c1C` [CNF-2024] are -7.18 and -6.33.
`COc1ccc(CCC(=O)c2c(O)cc(O[C@@H]3O[C@H](CO)[C@@H](O)[C@H](O)[C@H]3O[C@@H]3O[C@@H](C)[C@H](O)[C@@H](O)[C@H]3O)cc2O)cc1O` [Neohesperidin dihydrochalcone]: the “AC50 for growth inhibition (log10 M)” value was -5.18 with SB.msgc-1 and -5.28 in the experiment with SB.mhdgc-1.
In the same order, the values of `Cc1ccc(C(=O)Nc2cccc(C(F)(F)F)c2)cc1Nc1nc(-c2cccnc2)nc2c1cnn2C` [NVP-BHG712] are -4.78 and -4.83.
In the same order, the values of `O=C(O)c1ccc2cc(-c3ccc(O)c(C45CC6CC(CC(C6)C4)C5)c3)ccc2c1` [AHPN] are -4.83 and -6.48.
In the same order, the values of `CO[C@H]1/C=C/O[C@@]2(C)Oc3c(C)c(O)c4c(O)c(c(/C=N\N5CCN(C6CCCC6)CC5)c(O)c4c3C2=O)NC(=O)/C(C)=C\C=C\[C@H](C)[C@H](O)[C@@H](C)[C@@H](O)[C@@H](C)[C@H](OC(C)=O)[C@@H]1C` [Rifapentine] are -6.33 and -7.38.

The values above are taken from the supplement of paper PMC5412046.
